Columns and labels:
HUVECs [1] = test: Transwell cell migration assay; type: cell-based, human; settings: 0.5 μM, 16 h, FIG. 3A
Procedure: For evaluating cell migration, the HUVECs (1×10^5 cells/well) suspended within serum-free culture medium were seeded on inner surface of the upper chamber (ThinCerts™ Cell Culture Inserts with 8 μm pore size; #662638; Greiner Bio-One Inc., Monroe, N.C., USA) placed in the lower chamber (wells of a 24-well plate). For examining the cell invasion, the HUVECs were pre-mixed with equal volume of thawed Matrigel and rapidly seeded on the upper chamber. After 2 h for cell attachment, K20E at different concentrations (0.5, 1, and 2 μM) were added in the upper and the lower chambers, while 5% FBS as a chemoattractant was added in the lower chamber to facilitate cell migration or invasion. After 16 h incubation, the culture medium (or Matrigel) was removed clearly from inside the upper chamber, and the migrated or invasion cells attached on the outer surface of the upper chamber were fixed with 10% formaldehyde for 10 min at RT. The fixed cells were subsequently counterstained with hematoxylin. Relative cell number of each groups was counted from five random regions by light microscopy using a 40-fold magnification. The cell number of the control group (treated with 5% FBS alone) was defined as 100%.

p53-p21 pathway = test: p53 and p21 protein levels in HUVECs (immunoblot); type: cell-based, human; settings: FIG. 7
Procedure: (§1) The experiments were carried out as described previously (Pan et al., 2010). Briefly, the cells (5×10^5 cells/well) seeded on the 6-well plates and incubated with different concentrations (0.5, 1, and 2 μM) of K20E under normal culture condition for 15 min or 24 h to detect the expression levels of the phosphorylated proteins and the total proteins, respectively. The treated cells were harvested and lysed by using PROPREP® protein extraction solution (#17081; iNtRON Biotechnology, Gyeonggi-Do, South Korea). The cell lysates were further centrifuged at 13000×g at 4° C. for 10 min to collect the supernatants for sodium dodecyl sulfate-polyacrylamide gel electrophoresis (SDS-PAGE). Protein concentration was measured by the Bio-Rad protein assay kit (Bio-Rad, Hercules, Calif., USA) according to the manufacturer's instructions. Aliquots containing 30 μg protein were electrophoresed using 10% slab SDS-PAGE gels and then transferred to PVDF membranes (Immobilon-P™; Millipore, Bedford, Mass., USA). […] The luminescence signal was acquired by Fujifilm LAS-4000 system (San Leandro, Calif., USA) and quantified by using MultiGauge software (v3.0; Fujifilm). […] The relative protein expression was calculated according to the values of the control group (treated with 5% or 10% FBS alone) as 100%.

HUVECs [2] = test: Cell viability assay (MTT assay), growth inhibition of HUVECs; type: cell-based, human
Procedure: Human umbilical vein endothelial cells (HUVECs; #8000) were purchased from the ScienCell Research Laboratories (San Diego, Calif., USA). The cells were seeded on gelatin-coated culture dishes and grown in the commercial endothelial cell medium (#1001; ScienCell) containing 5% fetal bovine serum (FBS; #0025; ScienCell), 30 μg/mL endothelial cell growth supplements (ECGS; #1052; ScienCell), 100 units/mL penicillin G, and 100 μg/mL streptomycin sulfates (#0503; ScienCell). Cells at passage 3-6 were used for experiments. Mouse Lewis lung carcinoma cell line 1 (LLC1; #60050) was bought from the Food Industry Research and Development Institute (Hsinchu, Taiwan) and cultured in Gibco® Dulbecco's modified Eagle's medium (#12800-017; Invitrogen, Carlsbad, Calif., USA) supplemented with 10% FBS (HyClone, Logan, Utah, USA), 4 mM L-glutamine, 1.5 g/L sodium bicarbonate, 100 units/mL penicillin G, and 100 μg/mL streptomycin. All cells were incubated in a humidified 5% CO2 atmosphere at 37° C. and culture media was changed every 2˜3 days.
The experiments were performed according to our previous study with minor modifications (Pan et al., 2010). Briefly, the cells (2×10^4 cells/well) were seeded and grown under normal culture medium for 24 h. After another 24 h of starvation with 0.5% FBS, the cells were treated with several concentrations (1, 2, 4, 8, and 16 μM) of the tested compounds for 24 h and then incubated with 5 mg/mL of MTT (3-[4,5-dimethyl thiazol-2-yl]-2,5-diphenyl tetrazolium bromide) for 2 h. After that, the cells were washed with 1×PBS and then dimethyl sulfoxide (DMSO) was added to each well. Absorbance values at 570 nm were determined for each well using 650 nm as the reference wavelength. The absorbance of the control group (treated with 5% or 10% FBS alone) was defined as 100%.

[3] = test system: angiogenesis in chick chorioallantoic membrane; test: Chick chorioallantoic membrane (CAM) assay; settings: ex vivo supplementary data, dose-dependent
VEGFR-2 = VEGFR-2 expression in HUVECs (immunoblot); type: cell-based, human; settings: FIG. 6A
Procedure: as §1

[4] = test system: VEGF-induced vessel formation within the Matrigel plug; test: Matrigel plug assay (VEGF-induced neovascularization); type: in vivo, mouse; settings: mice, dose-dependent
Procedure: Male C57BL/6 (average of 6-week-old) mice were divided randomly into four groups (n=3/group): Group 1 (control group; injection with 500 μL cold-Matrigel [#356237; BD Biosciences]), Group 2 (injection with 500 μL cold-Matrigel containing 100 ng/mL VEGF and 100 U/mL heparin), Group 3 (injection with 4 μM […] dissolved in 500 μL cold-Matrigel containing 100 ng/mL VEGF and 100 U/mL heparin), and Group 4 (injection with 8 μM […] dissolved in 500 μL cold-Matrigel containing 100 ng/mL VEGF and 100 U/mL heparin). After 1 week adaptation, the mice were anesthetized and injected subcutaneously with pre-prepared cold-Matrigel gel mentioned above into the left groin region to form jelly-like plug under normal body temperature. The vascular endothelial cells will be attracted by Matrigel plug-released VEGF to form the new vessel within the Matrigel plug, whose process will be suppressed by anti-angiogenic substances added in the Matrigel plugs. After 7 days, the mice were sacrificed and the Matrigel plug was recovered and photographed. The harvested Matrigel plugs were further homogenized in 1× phosphate buffered saline (PBS) and then centrifuged at 10000×g for 10 min at 4° C. The Drabkin's Reagent (#D5941; Sigma-Aldrich, Louis, Mo., USA) was applied for examining the hemoglobin content in the supernatants of the homogenized Matrigel plugs according to the manufacturer's instructions. […]

`COC(=O)/C=C/c1cc(OC(C)=O)c2c(c1)[C@H](C(=O)OC)[C@@H](c1ccc(OC(C)=O)c(OC(C)=O)c1)O2` [K20E] was tested, and the “5% FBS-induced migration of the HUVECs” value (HUVECs [1]) was “markedly abolished”, the “expression level of p21 protein” value (p53-p21 pathway) was “dose-dependently increased” and the “expression level of p53 protein” value (p53-p21 pathway) was “dose-dependently increased”. The GI50 (HUVECs [2]; Homo sapiens, HUVEC, 24 h, MTT assay, 24 h treatment, 5% FBS-stimulated HUVECs) was about 7.5 µM, the “5% FBS-stimulated cell growth of the HUVECs” value (HUVECs [2]; dose-dependent, FIG. 2A) was “markedly reduced” and the “angiogenesis in CAM assay” value [3] was “effectively reduce the angiogenesis”. The “expression level of intracellular and surface VEGFR-2” value (VEGFR-2) was “markedly down-regulated”, the “neovessel formation within the Matrigel plug with VEGF” value ([4]; 4 and 8 μM, not at lower dose (1 and 2 μM), FIG. 1B upper panel) was “significantly decreased” and the “hemoglobin content of the implanted Matrigel plugs with VEGF” value ([4]; compared to Matrigel with VEGF alone, FIG. 1B lower panel) was “obviously diminished”.

Reference: patent publication US11066378B2, “Caffeic acid derivatives for anti-angiogenesis” (Taipei Medical University, priority 2015, dated 2021)
